Data: patent publication US6743429B2 (Sherbrooke University, priority 1999, dated 2004)
Where no end group is shown, it is not given here.

Columns and labels:
sheep = test: Haemodynamic parameters and baseline SRL after inhaled administration in sheep; assay type: in vivo; conditions: inhaled increasing doses (CGRP 0.1, 0.25, 0.5 and 1.0 mg/2 ml)
Source text: (§1) Eighteen sheep with a mean weight of 35 kg (range: 24 to 52 kg) were used for this study. […] Ten of these animals were defined as non-allergic and 8 as allergic, based on the absence or presence of both early and late airway responses after a standard inhalation challenge with Ascaris suum antigen. All sheep were allowed a 4-week recovery period after the allergen challenge before experimentation began. For each of the procedures hereafter presented, the unsedated animals were restrained on a standard shopping cart in the prone position and their heads were immobilized. […]
Briefly, pleural pressure was estimated via the esophageal balloon catheter (filled with 1 ml of air), which was positioned 5 to 10 cm from the gastroesophageal junction. […] Lateral pressure in the trachea was measured with a sidehole catheter (inner diameter=2.5 mm) advanced through and positioned distal to the tip of the endotracheal tube. […] The transpulmonary pressure and flow signals were recorded on a Hewlett Packard (model 7754B, Mass. USA) multichannel recorder, which was linked to a PC 386 Personal Computer (IBM Equipment, Montreal, Quebec) for online calculation of mean RL by dividing the change in transpulmonary pressure by the change in flow at mid-tidal volume (Vt) (obtained by digital integration). […]

allergic sheep [1] = test: Metacholine-induced non-specific airway responsiveness in allergic sheep; assay type: in vivo; conditions: inhaled 0.5 mg in 2 ml PBS
Source text: as §1
(§2) The techniques used for investigating airway mechanics were again well-validated and standardized procedures (as is usually the case with large mammals). […] Lateral pressure in the trachea was measured with a sidehole catheter (inner diameter=2.5 mm) advanced through and positioned distal to the tip of the endotracheal tube. […] The transpulmonary pressure and flow signals were recorded on a Hewlett Packard (model 7754B, Mass. USA) multichannel recorder, which was linked to a PC 386 Personal Computer (IBM Equipment, Montreal, Quebec) for online calculation of mean RL by dividing the change in transpulmonary pressure by the change in flow at mid-tidal volume (Vt) (obtained by digital integration). […]

allergic sheep [2] = test: Ascaris suum antigen-induced early and late increases in pulmonary resistance in sheep; assay type: in vivo
Source text: as §1, §2

allergic guinea pigs = test: Allergen (ovalbumin)-induced bronchospasm (PIP) in allergic guinea pigs; assay type: in vivo, guinea pig; conditions: CGRP receptor antagonist given 5 minutes before the allergen challenge
Experimental: Guinea pigs were anaesthetized with xylazine (20 mg/kg, i.m.) and ketamine hydrochloride (130 mg/kg, i.m.). The jugular vein and trachea were cannulated and animals were mechanically ventilated with a constant-volume rodent respirator (Havard, model 683) delivering a tidal volume of 5.5 ml/kg at a frequency of 60 cycles/min via the tracheal cannula. Airway resistance was measured by the overflow technique according to well-validated and standardized procedures. Briefly, ventilation overflow (i.e., the pulmonary insufflation pressure or PIP), was recorded at the side arm of the tracheal cannula by means of a differential pressure transducer (Gould P23 ID) connected to a Grass polygraph (model 7D). Airway responsiveness was assessed by measuring the changes in PIP following i.v. injections of the agonists. Changes in PIP, which were taken as an index of changed airway resistance, were measured and expressed in mm of mercury (mm Hg). Each agonist was injected through the jugular vein cannula in a volume of 100 μl followed by a washout with 200 μl of heparinized-saline (100 units/ml).
The resulting increase in PIP (bronchoconstriction) was compared to responses obtained in control animals i.e. in allergic guinea pigs, which received only saline solution 5 minutes before the i.v. injection of ovalbumin. […]

| Compound | heart rate (sheep) | mean arterial blood pressure (MAP) (sheep) | protection against metacholine-induced increase in airway resistance (allergic sheep [1]) [%] | effect on late phase bronchoconstriction to Ascaris suum antigen (allergic sheep [2]; aerosol 0.5 mg in 2 ml PBS pretreatment) | reduction of the peak of the early phase response to Ascaris suum antigen (allergic sheep [2]; aerosol 0.5 mg in 2 ml PBS, 20 minutes before antigen challenge) [%] | magnitude of the allergen-induced bronchospasm versus untreated animals (allergic guinea pigs) |
| --- | --- | --- | --- | --- | --- | --- |
| CC(C)(C)NCC(O)c1ccc(O)c(CO)c1 (stereo not drawn) [salbutamol] | increase in heart rate | hypotension | 65 | does not affect | 45 |  |
| hCGRP(8-37) (VTHRLAGLLSRSGGVVKNNFVPTNVGSKAF; ends and bridges not checked; UniProt P06881 90-119, looked up, fragment) [a CGRP receptor antagonist] |  |  |  |  |  | significant increase |
